Results as given in PubChem BioAssay (NCI).
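Compound exposure: 48 hours, 5 concentrations, 96-well plates. The concentration for full growth arrest is given as TGI.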

Key:
Assay in all cases: NCI anticancer screen, dose series, 48 h
ACHN renal = system: ACHN renal
COLO 205 colon = system: COLO 205 colon
DLD-1 colon = system: DLD-1 colon
DMS 114 small cell lung = system: DMS 114 small cell lung
HOP-18 NSCLC = system: HOP-18 NSCLC
KM20L2 colon = system: KM20L2 colon
LXFL 529 NSCLC = system: LXFL 529 NSCLC
M19-MEL melanoma = system: M19-MEL melanoma
OVCAR-3 ovarian = system: OVCAR-3 ovarian
OVCAR-4 ovarian = system: OVCAR-4 ovarian
RXF-631 renal = system: RXF-631 renal
SNB-19 CNS = system: SNB-19 CNS
SNB-78 CNS = system: SNB-78 CNS
DMS 273 small cell lung = system: DMS 273 small cell lung
XF 498 CNS = system: XF 498 CNS

Structure (SMILES) | TGI (ACHN renal) [µM] | TGI (COLO 205 colon) [µM] | TGI (DLD-1 colon) [µM] | TGI (DMS 114 small cell lung) [µM] | TGI (HOP-18 NSCLC) [µM] | TGI (KM20L2 colon) [µM] | TGI (LXFL 529 NSCLC) [µM] | TGI (M19-MEL melanoma) [µM] | TGI (OVCAR-3 ovarian) [µM] | TGI (OVCAR-4 ovarian) [µM] | TGI (RXF-631 renal) [µM] | TGI (SNB-19 CNS) [µM] | TGI (SNB-78 CNS) [µM] | TGI (DMS 273 small cell lung) [µM] | TGI (XF 498 CNS) [µM]
O=C1/C(=C/c2cccc([N+](=O)[O-])c2)COc2ccccc21 | 8.04 | > 100 | 9.56 | 8.14 | 24.8 | > 100 | 7.79 | 5.49 | 13.2 | 6.28 | 31.7 | 9.07 | > 100 |  | 
CCN(CC)CCCCC1CCN(CC(=O)N2c3ccccc3NC(=O)c3ccccc32)CC1 |  | > 100 | > 100 | > 100 |  |  | > 100 | > 100 | > 100 | > 100 | > 100 | > 100 | > 100 | > 100 | > 100
CCOc1ccc(NCC(=O)N2CC(=O)Nc3ccccc32)cc1 | > 100 | > 100 | > 100 |  | > 100 | > 100 | > 100 | > 100 | > 100 | > 100 |  | > 100 | > 100 | > 100 | > 100
Cc1ccc(S(=O)(=O)N/N=C2\C(=O)C3CC2C(Cl)C3Cl)cc1 (stereo unspecified) | > 100 | > 100 | > 100 | > 100 | > 100 | > 100 | > 100 |  | > 100 | > 100 | > 100 | > 100 |  | > 100 | 
O=C(O)Cc1cc(=O)oc2cc(O)c(Cl)cc12 | > 100 | > 100 | > 100 | > 100 | > 100 | > 100 | > 100 | > 100 | > 100 | > 100 |  | > 100 |  | > 100 | > 100
CC[C@@]1(O)C(=O)OCc2c1c(Cl)c1n(c2=O)Cc2cc3ccccc3nc2-1 | 6.05 | > 100 | > 100 | 15.9 | > 28.5 | > 100 | > 100 | > 30.7 | 22.1 | 63.1 | 18.5 | 56.7 | 84 | 8.12 | 15.8
COc1ccc2c(OC)c3ccoc3nc2c1O | > 100 | > 100 | > 100 | > 100 | > 100 | > 100 | > 100 | > 100 | > 100 | > 100 |  | > 100 | > 100 |  | > 100
CC(SC1=CC(=O)c2c(Cl)ccc(O)c2C1=O)C(=O)O (stereo unspecified) |  | 45.1 | 34.7 | 38.4 | 75.8 | > 100 | 29.5 |  |  |  |  |  | 26.3 | 35.6 | 34.2
COC(=O)c1c/c(=N\NC(=O)CC(=O)Nc2ccccc2Cl)c2ccccc2o1 | > 100 | > 100 | > 100 | > 100 |  | > 100 | > 100 |  | > 100 | > 100 | > 100 | > 100 | > 100 | > 100 | > 100
CCc1cc(Cc2cc(CC)c(NC(=O)C3=CC(=O)CC(c4ccc(OC)cc4)O3)c(CC)c2Cl)c(Cl)c(CC)c1NC(=O)C1=CC(=O)CC(c2ccc(OC)cc2)O1 (stereo unspecified) | 32.1 | 31.6 | 34.8 | 33.5 | 53.5 | 63.4 | 31.9 | 40.2 | 38.2 | 54.8 | > 100 | 42.7 | 85.1 | 37.6 | 
O=S(=O)(CC1=NC2C=CC=CC2N=C1)NCc1ccccc1 (stereo unspecified) | > 100 | > 100 | > 100 |  | > 100 | > 100 | > 100 | > 100 | > 100 | > 100 |  | > 100 |  | > 100 | > 100
COc1ccc2c(c1)c(Cc1c(C)n(C)c3ccc(OC)cc13)c(C)n2C | > 100 | > 100 | > 100 | > 100 | > 100 | > 100 | > 100 | > 100 | > 100 | > 100 |  | > 100 | > 100 | > 100 | > 100
O=C(CCN(CCO)CCO)Nc1ccc2c(c1)C(=O)c1ccc(NC(=O)CCN(CCO)CCO)cc1C2=O | > 100 | 29.5 |  | 19.6 | > 100 | > 100 | 16.2 | 26.6 | 51.3 | > 100 |  | 86.3 | 54.8 | 22.1 | 25
